Experimental data: patent publication US11136321B2, “Tricyclic compounds” (ALIGOS THERAPEUTICS, INC., priority 2019, dated 2021)

Tested on: HBV
Assay: HBV-DNA antiviral assay using HepG2.117 cells
Format: cell-based, genotype D HBV
Details: intracellular HBV DNA by qPCR, 3 days incubation
Description: The following assay procedure describes the HBV antiviral assay, using HepG2.117 cells, which carry a stably integrated genotype D HBV genome under the control of a Tet-off promoter, and intracellular HBV DNA quantification as endpoint. Cell viability is assessed in parallel by measuring the intracellular ATP content using ATPlite (Perkin Elmer).
On day 0, HepG2.117 cells (which are maintained in routine cell culture with doxycycline present in the medium at a final concentration of 1 μg/mL) were seeded in 96-well plates (white with clear bottom) at a density of 2.0×10^4 cells/well (0.1 mL/well) in medium without doxycycline to induce pgRNA transcription and subsequent formation of HBV particles. The cells were incubated at 37° C. and 5% CO2.
On day 1, medium was removed from each well, the test articles were diluted in culture medium without doxcycyline and 100 μL was added to cell culture wells (9 concentrations, 4-fold dilution). For each plate, 6 untreated (merely DMSO) wells were included. The final concentration of DMSO in the culture medium was 2%. Each plate was prepared in duplicate (one for HBV DNA extraction, one for ATPlite measurement). The cells were incubated at 37° C. and 5% CO2 for 3 days.
On day 4, cell viability was assessed using ATPlite and cell lysates were prepared for HBV DNA extraction and subsequent quantification by qPCR.
Medium was removed from each well and 100 μL of 0.33% NP-40 in H2O was added to each well. Plates were sealed, incubated at 4° C. for 5 mins, vortexed extensively and centrifuged briefly. Next, 35 μL of lysate was added to 65 μL QuickExtract DNA Extraction Solution (Epicentre) in a PCR plate for each well. PCR plate was incubated at 65° C. for 6 mins, 98° C. for 2 mins and finally cooled to 4° C. HBV DNA was then quantified by qPCR with HBV-specific primers and probes as specified in Table 1 using the Bio-Rad SSOAdvanced Universal Probes Supermix on a CFX96 machine (Bio-Rad). The PCR cycle program consisted of 95° C. for 3 mins, followed by 40 cycles at 95° C. for 10 sec and 60° C. for 30 sec.
A DNA standard was prepared by dilution of an IDT gBlock corresponding to the amplicon with concentrations ranging from 10^2 to 10^8 copies/input (i.e. per 4 μL) and used to generate a standard curve by plotting Cq values vs. HBV DNA standard concentration. The quantity of HBV DNA in each sample was determined by interpolating from the standard curve.
Cell viability was calculated as follows: % Cell viability=(luminescence value of test sample)/(average luminescence value of 2% DMSO control)×100%. HBV DNA inhibition was calculated as follows: 100−(HBV DNA copy number of test sample)/(average HBV DNA copy number of 2% DMSO control)×100%. No normalization to entecavir was required due to the excellent dynamic window of this assay. The CC50, EC50 and EC90 values were determined by dose-response curves fitted by GraphPad Prism using “log (agonist) vs. response—Variable slope”.

Row | Compound | EC50 (Hepatitis B virus, 72 h) [nM] | EC50 [nM]
1 | COc1ccc(Cn2c(=O)c3c(n4ncc(Cc5ccccc5)c24)CN(C(=O)c2ccc(Cl)c(Cl)c2)CC3)cc1 [Compound 14, 5-benzyl-12-(3,4-dichlorobenzoyl)-7-[(4-methoxyphenyl)methyl]-2,3,7,12-tetrazatricyclo [7.4.0.0^2,6] trideca-1(9),3,5-trien-8-one] | 500 to 5000 | 
2 | CC(C)CNc1cnn2c3c(c(=O)n(-c4ccccc4)c12)CCN(C(=O)c1ccc(Cl)c(Cl)c1)C3 [Compound 15, 12-(3,4-dichlorobenzoyl)-5-(isobutylamino)-7-phenyl-2,3,7,12-tetrazatricyclo [7.4.0.0^2,6] trideca-1(9),3,5-trien-8-one] | > 5000 | 
3 | CC(C)NC(=O)c1cnn2c3c(c(=O)n(-c4ccccc4)c12)CCN(C(=O)c1ccc(Cl)c(Cl)c1)C3 [Compound 16, 12-(3,4-dichlorobenzoyl)-N-isopropyl-8-oxo-7-phenyl-2,3,7,12-tetraazatricyclo[7.4.0.0^[2,6]]trideca-1(9),3,5-triene-5-carboxamide] |  | > 5000
4 | CC(C)CC(=O)Nc1cnn2c3c(c(=O)n(-c4ccccc4)c12)CCN(C(=O)c1ccc(Cl)c(Cl)c1)C3 [Compound 17, N-[12-(3,4-dichlorobenzoyl)-8-oxo-7-phenyl-2,3,7,12-tetraazatricyclo[7.4.0.0^[2,6]]trideca-1(9),3,5-trien-5-yl]-3-methylbutanamide] |  | > 5000
5 | O=C(c1ccc(Cl)c(Cl)c1)N1CCc2c(n3ncc(NCc4ccccc4)c3n(-c3ccccc3)c2=O)C1 [Compound 18, 5-(benzylamino)-12-(3,4-dichlorobenzoyl)-7-phenyl-2,3,7,12-tetraazatricyclo[7.4.0.0^[2,6]]trideca-1(9),3,5-trien-8-one] |  | 500 to 5000
6 | CC(C)CNC(=O)c1cnn2c3c(c(=O)n(-c4ccccc4)c12)CCN(C(=O)c1ccc(Cl)c(Cl)c1)C3 [Compound 19, 12-(3,4-dichlorobenzoyl)-N-isobutyl-8-oxo-7-phenyl-2,3,7,12-tetrazatricyclo [7.4.0.0^2,6] trideca-1(9),3,5-triene-5-carboxamide] | > 5000 | 
7 | O=C(NCc1ccccc1)c1cnn2c3c(c(=O)n(-c4ccccc4)c12)CCN(C(=O)c1ccc(Cl)c(Cl)c1)C3 [Compound 20, N-benzyl-12-(3,4-dichlorobenzoyl)-8-oxo-7-phenyl-2,3,7,12-tetrazatricyclo [7.4.0.0^2,6] trideca-1(9),3,5-triene-5-carboxamide] | > 5000 | 
8 | COc1ccc(-n2c(=O)c3c(n4ncc(NC(C)=O)c24)CN(C(=O)c2ccc(Cl)c(Cl)c2)CC3)cc1 [Compound 21, N-[12-(3,4-dichlorobenzoyl)-7-(4-methoxyphenyl)-8-oxo-2,3,7,12-tetrazatricyclo [7.4.0.0^2,6]trideca-1(9),3,5-trien-5-yl]acetamide] |  | > 5000
9 | COc1ccc(-n2c(=O)c3c(n4ncc(NC(=O)C(C)C)c24)CN(C(=O)c2ccc(Cl)c(Cl)c2)CC3)cc1 [Compound 22, N-[12-(3,4-dichlorobenzoyl)-7-(4-methoxyphenyl)-8-oxo-2,3,7,12-tetrazatricyclo [7.4.0.0^2,6]trideca-1(9),3,5-trien-5-yl]-2-methyl-propanamide] |  | > 5000
10 | COc1ccc(-n2c(=O)c3c(n4ncc(NC(=O)Cc5ccccc5)c24)CN(C(=O)c2ccc(Cl)c(Cl)c2)CC3)cc1 [Compound 23, N-[12-(3,4-dichlorobenzoyl)-7-(4-methoxyphenyl)-8-oxo-2,3,7,12-tetrazatricyclo [7.4.0.0 2,6]trideca-1(9),3,5-trien-5-yl]-2-phenyl-acetamide] | 500 to 5000 | 
11 | COc1ccc(-n2c(=O)c3c(n4ncc(Cc5ccccc5)c24)CN(C(=O)c2ccc(Cl)c(Cl)c2)CC3)cc1 [Compound 24, 5-benzyl-12-(3,4-dichlorobenzoyl)-7-(4-methoxyphenyl)-2,3,7,12-tetraazatricyclo[7.4.0.0^[2,6]]trideca-1(9),3,5-trien-8-one] |  | 100 to 500
12 | COc1ccc(-n2c(=O)c3c(n4ncc(NCc5ccccc5)c24)CN(C(=O)c2ccc(Cl)c(Cl)c2)CC3)cc1 [Compound 25, 5-(benzylamino)-12-(3,4-dichlorobenzoyl)-7-(4-methoxyphenyl)-2,3,7,12-tetraazatricyclo[7.4.0.0^[2,6]]trideca-1(9),3,5-trien-8-one] |  | ≤ 100
13 | COc1ccc(-n2c(=O)c3c(n4ncc(NS(C)(=O)=O)c24)CN(C(=O)c2ccc(Cl)c(Cl)c2)CC3)cc1 [Compound 26, N-[12-(3,4-dichlorobenzoyl)-7-(4-methoxyphenyl)-8-oxo-2,3,7,12-tetrazatricyclo [7.4.0.0 2,6]trideca-1(9),3,5-trien-5-yl] methanesulfonamide] | 500 to 5000 | 
14 | O=C(c1ccc(Cl)c(Cl)c1)N1CCc2c(n3ncc(Cc4ccccc4)c3n(-c3ccccc3)c2=O)C1 [Compound 27, 5-benzyl-12-(3,4-dichlorobenzoyl)-7-phenyl-2,3,7,12-tetrazatricyclo [7.4.0.0 2,6] trideca-1(9),3,5-trien-8-one] | ≤ 100 | 
15 | COc1cccc(-n2c(=O)c3c(n4ncc(NCc5ccccc5)c24)CN(C(=O)c2ccc(Br)c(Cl)c2)CC3)c1 [Compound 28, 5-(benzylamino)-12-(4-bromo-3-chloro-benzoyl)-7-(3-methoxyphenyl)-2,3,7,12-tetrazatricyclo [7.4.0.0 2,6] trideca-1(9),3,5-trien-8-one] | 100 to 500 | 
16 | CNC(=O)c1ccc(-n2c(=O)c3c(n4ncc(Cc5ccccc5)c24)CN(C(=O)c2ccc(Br)c(Cl)c2)CC3)cc1 [Compound 29, 4-[5-benzyl-12-(4-bromo-3-chlorobenzoyl)-8-oxo-2,3,7,12-tetraazatricyclo[7.4.0.0^[2,6]]trideca-1(9),3,5-trien-7-yl]-N-methylbenzamide] |  | ≤ 100
17 | COc1ccc(-n2c(=O)c3c(n4ncc(NC(=O)c5ccccc5)c24)CN(C(=O)c2ccc(Br)c(Cl)c2)CC3)cc1 [Compound 30, N-[12-(4-bromo-3-chloro-benzoyl)-7-(4-methoxyphenyl)-8-oxo-2,3,7,12-tetrazatricyclo [7.4.0.0 2,6]trideca-1(9),3,5-trien-5-yl] benzamide] | 100 to 500 | 
18 | COc1ccc(-n2c(=O)c3c(n4ncc(NS(=O)(=O)c5ccccc5)c24)CN(C(=O)c2ccc(Br)c(Cl)c2)CC3)cc1 [Compound 31, N-[12-(4-bromo-3-chloro-benzoyl)-7-(4-methoxyphenyl)-8-oxo-2,3,7,12-tetrazatricyclo [7.4.0.0 2,6]trideca-1(9),3,5-trien-5-yl] benzenesulfonamide] | ≤ 100 | 
19 | COc1ccc(-n2c(=O)c3c(n4ncc(Nc5ccccc5)c24)CN(C(=O)c2ccc(Br)c(Cl)c2)CC3)cc1 [Compound 32, 12-(4-bromo-3-chlorobenzoyl)-7-(4-methoxyphenyl)-5-(phenylamino)-2,3,7,12-tetraazatricyclo[7.4.0.0^[2,6]]trideca-1(9),3,5-trien-8-one] |  | ≤ 100
20 | COc1ccc(-n2c(=O)c3c(n4ncc(NS(=O)(=O)Cc5ccccc5)c24)CN(C(=O)c2ccc(Br)c(Cl)c2)CC3)cc1 [Compound 33, N-[12-(4-bromo-3-chloro-benzoyl)-7-(4-methoxyphenyl)-8-oxo-2,3,7,12-tetrazatricyclo [7.4.0.0 2,6]trideca-1(9),3,5-trien-5-yl]-1-phenyl-methanesulfonamide] | 500 to 5000 | 
21 | CNC(=O)c1ccc(-n2c(=O)c3c(n4ncc(Cc5ccccc5)c24)CN(C(=O)c2ccc(Cl)c(Cl)c2)CC3)cc1 [Compound 34, 4-[5-benzyl-12-(3,4-dichlorobenzoyl)-8-oxo-2,3,7,12-tetrazatricyclo [7.4.0.0 2,6]trideca-1(9),3,5-trien-7-yl]-N-methyl-benzamide] | ≤ 100 | 
22 | CNC(=O)c1ccc(-n2c(=O)c3c(n4ncc(Cc5ccc(OC(F)(F)F)cc5)c24)CN(C(=O)c2ccc(Br)c(Cl)c2)CC3)cc1 [Compound 35, 4-[12-(4-bromo-3-chlorobenzoyl)-8-oxo-5-[[4-(trifluoromethoxy)phenyl]methyl]-2,3,7,12-tetraazatricyclo[7.4.0.0^[2,6]]trideca-1(9),3,5-trien-7-yl]-N-methylbenzamide] |  | ≤ 100
